The source of these data is patent US5149688A, “Methods, compounds, and compositions for immunosuppression” (priority 1990, dated 1992).

The subject of data set [1] is lymphocytes. Nature of the data set: Phytohemagglutinin A (PHA) assay. In kind it is cell-based. As to conditions: Lymphocyte, read-out: concentration giving 50% inhibition, PHA assay. From the text: (§1) The following studies sought to characterize the immunosuppressive activities of ABA, both as to in vitro and in vivo efficacy in experimental systems. It is important to point out that the results obtained from the in vitro systems are generally predictive of the in vivo immunosuppressive properties of the ABA. More specifically, the assays used here are mixed lymphocyte response (MLR) and phytohemagglutinin A (PHA) assays which are valuable for identifying immune suppressive molecules in vitro, and that the results obtained therefrom are generally predictive of their in vivo effectiveness. The assays are further described below.
A second assay widely used to study immune responsiveness is mitogenic stimulation of lymphocytes with mitogenic substances of plant origin. The most widely used plant molecule is PHA.
(§2) Thus, it will be appreciated as to both the mixed lymphocyte and PHA assay that they are valuable for identifying immune suppressive molecules in vitro, and that the results obtained therefrom are generally predictive of their in vivo effectiveness.

Data set [2] relates to lymphocytes. Nature of the data set: Secondary mixed lymphocyte reaction (2'-MLR) assay. In kind it is cell-based. To be noted: read-out: concentration inhibiting 50% of the stimulatory activity, 2'-MLR. An excerpt:
In addition to the above immunosuppressive assays, a secondary mixed lymphocyte reaction assay was applied to ABA. The secondary mixed lymphocyte assays differs from the primary mixed lymphocyte reaction assays in that they employ many more primed responder cells that are responsive to the primary stimulating cells. The presence of such responsive cells is a reflection of immunological memory in an ongoing immunological response. […] Generally between 10% to 50% of the original input cells are recovered in viable condition. These cells are then used in the secondary mixed lymphocyte reaction.
The procedure for carrying out a secondary mixed lymphocyte reaction is described by T. Meoen, Immunological Methods, Eds I. Lefkoivits and B. Pernis, […], New York (1979). It will be appreciated that described therein is a method for carrying out secondary lymphocyte reactions using mouse cells, however such methods are generally applicable to performing secondary mixed lymphocyte reactions using human cells with modifications that are well known to those skilled in the art.

Data set [3] has as its system lymphocytes. Nature of the data set: Primary mixed lymphocyte response (MLR) assay. As to conditions: read-out: concentration giving 50% inhibition, primary MLR assay. It is filed as cell-based.
Excerpt: as §1
The in vitro mixed lymphocyte assay is presently employed in the clinical setting as an indicator of histocompatibility, and is premised on the transformation of resting genetically dissimilar lymphocytes into cells which synthesize DNA and undergo proliferation.
as §2

The subject of data set [4] is adjuvant arthritis (AA).
The subject of data set [5] is rheumatoid arthritis (RA). As to conditions: human, in vivo; cited from earlier work.
In the next data set the test system is dihydrofolate reductase. As to conditions: cited from earlier work.
For data set [6], the system named is adjuvant arthritis (AA). Nature of the data set: Therapeutic treatment of AA with SA and/or MTX, summary of set of experiments run in triplicate.
Protocol: In the SA and MTX combined treatment regimen, the SA was administered in an amount ranging from 150-300 mg/kg/day. The MTX was administered three times a week in IP injections, at a total of 0.9 mg/kg/week.
Data set [7] in a line: Body weight / toxicity of rats under prophylactic SA treatment. As to conditions: SA level necessary for suppression of AA.
Protocol: (§3) Isotonic and isovolumic saline was used as the control in this subcutaneous infusion treatment regimen (hereinafter referred to as SQ, or continuous infusion, CI, regimen). The treatment was started on day -4 prior to M.Tb injection (day 0). The pumps were calculated to infuse until day 10. Ten rats were used in each group.
For data set [8], the system named is adjuvant arthritis (AA). Put plainly: Long term suppression of AA using combined SA and MTX treatment (Example 6). As to conditions: SA 300 mg/kg/day IP or MTX 0.9 mg/kg/week IP, day 5 to 15. It is filed as in vivo, male Lewis rats. As for the experimental part:
On day 0, three groups of 10 male Lewis rats were injected with M.Tb in oil suspension, as in previous examples. […] The animals were evaluated for arthritis development.

Data set [9] in a line: Plasma levels of SA during CI therapy (HPLC). In kind it is in vivo, male Lewis rats. As to conditions: 400 mg/kg/day CI; for concentration at 216 h: rat, plasma, sc, 400 mg/kg/day.
Data set [10] concerns adjuvant arthritis (AA). Put plainly: Therapeutic effect of SA on AA (Example 2). In kind it is in vivo, rats. Here is the method: The following experiments examined the therapeutic effect of SA on the progression of AA. In these studies, the treatments with SA began at day 5 after the rats had been immunized with M.Tb in their left footpads. At this time, the activation of lymphoid cells with M.Tb was well established and the appearance of mononuclear cells at the joint has been reported as the earliest histologic findings. Billingham, 1983, Pharma. Theory, 21: 389.
325 mg/kg/day of SA was administered by subcutaneous pump infusion from day 5 until day 19. The control animals received isotonic and isovolumic NaCl control.
A parallel group of animals were treated with daily intraperitoneal injections of 800 mg/kg/day of SA (FIGS. 6 and 7). This was done to compare the relative efficacy of continuous infusion versus a single daily intraperitoneal injection.

Data set [11] concerns adjuvant arthritis (AA). Put plainly: Prophylactic effect of SA on adjuvant arthritis in rats (Example 1). In kind it is in vivo, male Lewis rats.
In data set [12] the test system is established adjuvant arthritis (AA). Nature of the data set: Comparative efficacy of SA and MTX in the treatment of established arthritis (Example 4). In kind it is in vivo, male Lewis rats. Here is the method: Three groups of 15 male Lewis rats were injected with M.Tb on day 0 in the left hindpaw. […] On day 16, subcutaneous pumps were placed in the SA and control groups. SA was administered at 300 mg/kg/day by CI. The control group received 2.5M NaCl. […] Treatment was continued to day 30.

For data set [13], the system named is adjuvant arthritis (AA). Nature of the data set: Comparative efficacy of MTX and SA in suppressing onset of AA (Example 3). In kind it is in vivo, Lewis rats. As for the experimental part: On the same day, pumps were surgically implanted into the first two groups. The first group received SA at 300 mg/kg/day through the pumps. The second group, which served as the control, received continuous infusion of 2.5M NaCl through the pumps.

For the next data set, the system named is allogeneic tumors. To be noted: rats; cited from earlier work.
The conditions of data set [14]: rat, in vivo.
Protocol: as §3
Data set [15] concerns delta-aminolevulinic dehydratase. As to conditions: cited from earlier work.
Setting [16] is: SA 300 mg/kg/day CI, day 16 to 30.

Molecules are shown by their SMILES. Read-outs that look alike come from different tables or passages of the source.

Consider `CC(=O)CC(=O)c1ccccc1C(=O)O` [ABA, 2-acetoacetyl benzoic acid], for which the IC50 was 91 ± 60 µM in the data set with lymphocytes [1], approximately 1600 µM in the data set with lymphocytes [2] and 870 ± 280 µM in the data set with lymphocytes [3]. In the data set on adjuvant arthritis (AA) [4] (ABA 400 mg/kg/day IP), the “footpad swelling at day 19, 4 days after cessation” value was “decreased footpad swelling”. For the same compound, the “suppression of AA, ABA compared with SA” value in the data set on adjuvant arthritis (AA) [4] (ABA 400 mg/kg/day IP vs SA 800 mg/kg/day IP) is recorded as “ABA is more efficacious than SA in suppressing AA”. Besides, the “footpad swelling, clinical disease scores and incidence of arthritis during administration” value in the data set with adjuvant arthritis (AA) [4] (ABA 400 mg/kg/day IP, FIGS. 14 and 15) is “AA was suppressed; the footpad swelling, clinical disease scores and incidence of arthritis were all lowered”. Further, the “Arthritis Incidence” value with adjuvant arthritis (AA) [4] (ABA 100 in ABA/PEG formulation, day 12) turned out to be 100%; with adjuvant arthritis (AA) [4] (ABA 100 in ABA/PEG formulation, day 19), 100%; in the data set with adjuvant arthritis (AA) [4] (ABA 200 in ABA/PEG formulation, day 12) it was 100%; with adjuvant arthritis (AA) [4] (ABA 200 in ABA/PEG formulation, day 19) it was 100%; with adjuvant arthritis (AA) [4] (ABA 400 in ABA/PEG formulation, daily IP day 5 to 15, day 12, control 100%) it was 40%; with adjuvant arthritis (AA) [4] (ABA 400 in ABA/PEG formulation, day 19 (4 days after cessation)) it was 100%. Also, the suppression of arthritis entry in the data set on adjuvant arthritis (AA) [4] (ABA 200 and 100 mg/kg/day IP) is listed as “did not show observable suppression of arthritis”. Besides, in the data set with adjuvant arthritis (AA) [4] (ABA given IP), the “suppression of AA at 400 mg/kg/day, post-immunization regimen” value is given as “ABA suppressed AA at 400 mg/kg/day when given IP in a post-immunization regimen”.
On to `CC(C)(S)[C@@H](N)C(=O)O` [D-penicillamine], for which, in [5], the toxic side effects entry is “causes bone marrow depression and renal toxicity”.
For `CN(Cc1cnc2nc(N)nc(N)c2n1)c1ccc(C(=O)N[C@@H](CCC(=O)O)C(=O)O)cc1` [MTX, Methotrexate], in the data set with dihydrofolate reductase, the “inhibition of dihydrofolate reductase” value was “inhibits dihydrofolate reductase”.
In the case of `CC(=O)CC(=O)CCC(=O)O` [SA, Succinylacetone], the “CI versus IP regimen at suppressing the AA” value with adjuvant arthritis (AA) [6] (300 to 400 mg/kg/day CI vs 800 mg/kg/day IP) is listed as “The CI regimen was more effective than the IP regimen at suppressing the AA”. Besides, in the data set on adjuvant arthritis (AA) [6] (SA 300 to 400 mg/kg/day CI or 800 mg/kg/day IP), the “suppression of AA without death or weight loss” value is reported as “suppressed AA without causing death or weight loss in the rats”. Also, the “SA dose at which AA was suppressed without death or weight loss, IP” value in the data set with adjuvant arthritis (AA) [6] (daily intraperitoneal injection) stood at 800 mg/kg/day. Also, in data set [7], the toxicity entry was “non-toxic to the animals at the level necessary for suppression of AA”. In addition, in the data set with adjuvant arthritis (AA) [8], the “suppression of AA, single drugs IP” value was “AA was not suppressed”. In addition, in data set [9] (blood collected on day 9, individual rats SA-C1, SA-C2, SA-C3, 12960 min, 12960 min, read-out: SA Level (plasma)), the concentration was 50 µM. The concentration at 216 h in [9] (blood collected on day 9, individual rats SA-C1, SA-C2, SA-C3, read-out: SA Level (plasma)) was found to be 44 µM. In addition, in data set [9] (day 9, HPLC, read-out: plasma SA levels associated with clinical suppression of arthritis), the concentration at 216 h lay in the range of 40 to 50 µM. For the same compound, the “continuous infusion versus daily IP injection” value with adjuvant arthritis (AA) [10] (325 mg/kg/day CI vs 800 mg/kg/day IP) was “continuous infusion results in greater suppression at a lower dose than does daily IP injection”. Further, the “right hindpaw swelling and clinical severity of arthritis” value with adjuvant arthritis (AA) [10] (SA 325 mg/kg/day SQ pump infusion, day 5 to 19, FIGS. 4 and 5) is “Right hindpaw swelling and clinical severity of arthritis was suppressed”. In addition, the arthritis during treatment entry with adjuvant arthritis (AA) [10] (SA 325 mg/kg/day continuous infusion) was “completely suppressed during treatment”. Besides, the “day until which the clinical scores did not increase” value in the data set with adjuvant arthritis (AA) [10] (SA 325 mg/kg/day continuous infusion, day 5 to 19) turned out to be 36 days. In the data set with adjuvant arthritis (AA) [10] (SA 325 mg/kg/day continuous infusion, from day 36), the “increase in clinical scores relative to saline treated animals” value was “less than half of the saline treated animals”. Besides, the “suppression of AA beyond termination of treatment” value in the data set with adjuvant arthritis (AA) [10] (SA 800 mg/kg/day IP, FIG. 7) is “did not suppress the AA beyond the termination of the treatment regimen”. In addition, in the data set with adjuvant arthritis (AA) [10] (SA 800 mg/kg/day, daily IP), the “day by which groups reached equivalent severity to the controls” value was not above 33 days and the “footpad swelling after termination of treatment” value was “an attenuated increase in footpad swelling was observed, however, the swelling was less than that found in the controls”. Further, the “footpad swelling during treatment” value with adjuvant arthritis (AA) [10] (SA 800 mg/kg/day, daily IP, FIG. 6) is recorded as “suppression of footpad swelling until the treatment stopped”. Moreover, the “clinical severity of arthritis” value in the data set on adjuvant arthritis (AA) [10] (SA 800 mg/kg/day, daily IP, FIG. 7) is given as “delayed the clinical severity of the arthritis”. Besides, the “suppression of arthritis, both regimens” value in the data set on adjuvant arthritis (AA) [10] (continuous infusion and daily IP injections) is “resulted in suppression of arthritis”. In addition, in the data set with adjuvant arthritis (AA) [11] (SA 400 and 200 mg/kg/day CI, day -4 to day 10), the “arthritis severity, dose dependence” value was “inhibited arthritis severity in a dose dependent manner”. The “right footpad swelling and arthritis in non-injected extremities” value in the data set on adjuvant arthritis (AA) [11] (SA 400 and 200 mg/kg/day, SQ ALZET pumps, day -4 to day 10, FIGS. 1 and 2) is “suppression of clinical arthritis”. Further, the “histologic arthritis of the joints” value in the data set on adjuvant arthritis (AA) [11] (SA treated cohort, CI) was “found to suppress histologic arthritis”. Moreover, the “right footpad diameter, progression from day 23 to 63” value in [12] (SA 300 mg/kg/day CI or MTX […] IP, day 16 to 30, FIG. 10) is reported as “did not increase significantly”. Further, in [12] (setting [16]), the “persistence of lack of further swelling after cessation of treatment” value is reported as “up to 33 days” and the “progression / regression of established arthritis” value was “SA prevented progression of AA, but because the disease had already established itself at the onset of treatment, SA did not cause regression of the arthritis”. In addition, the “mean right hindpaw thickness” value in [12] (day 23, SA 300 mg/kg/day CI or MTX […] IP from day 16, control 321, normal about 170 U) came to 258 U. For the same compound, the “suppression of AA based on disease incidence” value in the data set on adjuvant arthritis (AA) [13] (SA 300 mg/kg/day CI) was “maximal suppression of AA based on the disease incidence”. In addition, the “footpad swelling, SA compared with MTX” value in the data set on adjuvant arthritis (AA) [13] (SA 300 mg/kg/day CI vs MTX […] and 3 mg/kg/week) is on record as “trend towards greater inhibition”. For the same compound, the incidence of arthritis result in the data set with adjuvant arthritis (AA) [13] (SA 300 mg/kg/day CI, day 14, FIG. 9) is listed as “no incidence of arthritis on day 14”. In the data set with adjuvant arthritis (AA) [13] (SA 300 mg/kg/day CI, MTX 2.4 and 3 mg/kg/week IP, FIG. 8), the footpad swelling suppression result was “significant suppression”. Also, the “tumorigenicity of allogeneic tumors” value in the data set with allogeneic tumors is given as “enhance tumorigenicity of allogeneic tumors in rats”. The body weight entry in [14] is given as “allowed weight gain”. In addition, the “suppression of the disease by SA using this treatment protocol” value with adjuvant arthritis (AA) [4] (SA 800 mg/kg/day IP) was “only transient suppression of the disease”. The “inhibition of delta-aminolevulinic dehydratase” value in data set [15] was “potent inhibitor”.
